Data: patent publication US20090142363A1, “CYTOTOXIC T-CELL EPITOPE PEPTIDE AND USE THEREOF” (priority 2005, published 2009)
No end group written: not given here.

What was measured:
Format in all cases: cell-based, human
[1] = tested on: CTLs with target cells expressing HLA-A*24 molecules; assay: Confirmation of CTLs by ELISPOT assay (IFNγ spots); conditions: FIG. 4
Method: A commercially available ELISPOT assay kit (for example, MABTECH Co.) may be purchased, and the assay can be performed according to the manufacturer's protocol. Alternatively, the assay may also be carried out by the following procedure. 96-well MultiScreen-HA plates (Millipore Co.) were coated with an anti-IFNγ monoclonal antibody (R&D Systems Co.) at 4° C. for overnight. Each well was washed with PBS. Target cells were plated into each well. Any cells expressing HLA-A*24 molecules on their surface can be used as the target cells. For example, T2-A24, a cultured cell which a gene of HLA-A*24 molecule is introduced into a 174CEM.T2 cell, can be used. Alternatively, EBV-infected LCLs expressing HLA-A*24 molecules on their surface can be used as the target cells. These target cells were added into each well with a candidate peptide for adenovirus-specific CTL epitopes or a negative control (HIV) peptide. The mixtures were allowed to stand at room temperature for 30 minutes. Then, an adequate number of CTLs were added, and the mixtures were cultured in a 5% CO2 incubator at 37° C. for 20 hours. CTLs that responded to the candidate epitope peptide secreted IFNγ during this culture period, and the IFNγ bound to the anti-IFNγ monoclonal antibody that was coated on the plates. After culturing was completed, the plates were washed with PBS containing 0.05% Tween-20. Then, an anti-IFNγ polyclonal antibody (Genzyme Co.) and peroxidase-labeled goat anti-rabbit IgG serum were allowed to react in this order at room temperature for 90 minutes each. Furthermore, 3-amino-9-ethylcarbasole (Sigma), a peroxidase substrate, and 0.1M sodium acetate buffer (pH 5.0) containing 0.015% H2O2 was added to each well, and the plates were incubated at room temperature for 40 minutes to visualize the IFNγ spots. The spots were counted under a stereomicroscope.
The spots were counted under a stereomicroscope, and were plotted on a graph.

[2] = tested on: PBMCs of healthy adults reactive to the anti-HLA-A*24 antibody; assay: Induction of specific CTLs from PBMCs, method for quantifying cells producing intracellular IFNγ; set-up: key to specific CTL induction, cytokine quantification method: ∘: “open circle” indicates that the use of a candidate peptide enabled specific CTLs to be induced; x: “cross” indicates that specific CTLs was unable to be induced; conditions: for peptide-specific cytokine production in PBMCs derived from ten people with HLA-A*24 molecule: summary of Table 2; for CD8-positive, IFNγ-positive (producing) cells in UR: restimulation with the same peptide as used in the induction, % in PBMCs; for number of persons with peptide-specific IFNγ production / CTL induction: ten persons tested
Method: This induction method induces CTLs by adding peptides to culture media of PBMCs. Peptides are presented on antigen-presenting cells present among PBMCs, such as dendritic cells, B cells, macrophages, and certain types of T cells, whereby CTL precursor cells in PBMCs are stimulated to proliferate.
Peripheral blood collected from healthy adults that were reactive to the anti-HLA-A*24 antibody was centrifuged at 3,000 rpm for 5 to 10 minutes. The resulting supernatant plasma was collected. The non-plasma portion was processed according to a conventional method to isolate PBMCs. The characteristic of the present method is the addition of several % of plasma to an induction medium. In the present invention, a favorable result was obtained by adding 5% plasma. The medium is prepared by adding appropriate additives and antibiotics to a medium commonly used for cell culture. The CTL induction medium used in the present invention was RPMI1640 Hepes modify (Sigam) supplemented with 2-mercapotethanol, L-glutamine, and the antibiotics streptomycin and penicillin. In addition to these, insulin, transferrin, selenious acid, pyruvic acid, human serum albumin, solution of non-essential amino acids, and the like may be added. 1 to 3×10^6 PBMCs were suspended in 1 to 2.5 ml of the culture medium. A candidate peptide was added to the cells at a concentration of 1 to 20 μg/ml. The concentration of peptide can be altered depending on the solubility of the peptide. The peptide was added at 10 μg/ml. After two days, IL-2 was added at a final concentration of 20 to 100 U/ml. Round-bottomed culture dishes that allow the exchange of carbon dioxide gas are preferably used to co-culture PBMCs with peptides. In the context of the present invention, 14-ml round-bottomed polypropylene tubes (Becton Dikinson) or 96-well U-bottomed cell culture microtest plates (Becton Dikinson) were used. The adenovirus-specific CTLs were confirmed after about two and four weeks of culture. The cells were stimulated again with the peptide at 10 μg/ml after about two weeks of culture. When the induction of adenovirus-specific CTLs was confirmed, the cells were further stimulated with peptide-pulsed antigen-presenting cells to establish CTL lines.
Approximately 1/10 to all of the cells induced by the above-described method were transferred into 96-well U-bottomed cell culture microtest plates, and the peptide used for the induction was added thereto at a final concentration of 0.01 to 0.05 μg/ml. Then, an intracellular protein transport inhibitor (for example, brefeldin A, monensin, or such) was added, and the cells were cultured in a 5% CO2 incubator at 37° C. for 5 to 16 hours. After culture, the cells were washed, and phycoerythrin (PE)-labeled MHC-tetramer reagent and phycoerythrin-Cy5(PC5)-labeled CD8 antibody (Beckman Coulter) were added thereto. The resulting mixture was allowed to stand at room temperature for 15 to 30 minutes. After washing, the cells were fixed with 4% formaldehyde at 4° C. for 15 minutes and washed with an excess amount of washing solution. After membrane permeabilization treatment with 0.1% saponin, an FITC-labeled anti-IFNγ antibody (Beckman Coulter) was added, and reacted at room temperature for 15 to 30 minutes. After washing, the proportion of IFNγ-positive cells in T cells or MHC-tetramer reagent-positive cells was determined using a flow cytometer.
PBMCs derived from ten people with HLA-A*24 molecule were tested using 10 types of peptides. […] Thus, these six types of candidate epitope peptides serve as adenovirus-specific CTL epitope peptides. Since the adenovirus-specific CTL epitope peptides have the HLA-A*24-binding motif, they are likely to be HLA-A*2402-restricted epitope peptides, which are carried by 60% or more of the Japanese people. In the context of the results described above, MHC-tetramer reagents were synthesized using five types of epitope peptides, and their utility was tested.

[3] = tested on: CTL line induced by TYF (PBMCs from ID*24-8); assay: Cross-reactivity of the TYF-induced CTL line to the subgroup C-specific CTL epitope; conditions: PBMCs from ID*24-8 stimulated with TYF for 13 days
Source text: As shown in FIG. 11-4, there are amino acid mutations at the fourth and sixth positions in TYF identified in the present invention as compared to the subgroup C-specific CTL epitopes. Thus, the cross-reactivity to subgroup C-specific CTL epitope ([…] (SEQ ID NO: 14); mutated amino acids are underlined) (Leen A M, Sili U, Vanin E F, Jewell A M, Xie W, Vignali D, Piedra P A, Brenner M K, Rooney C M. Conserved CTL epitopes on the adenovirus hexon protein expand subgroup cross-reactive and subgroup-specific CD8+ T cells. Blood. 104:2432-2440 (2004)) was examined using a CTL line induced by TYF.
PBMCs prepared from ID*24-8 were stimulated with TYF for 13 days, and then restimulated with TYF or […] (SEQ ID NO: 14) to examine whether the CTL line produces IFNγ.

[4] = tested on: peripheral blood / PBMCs / peptide-induced CTL lines of HLA-A*24 donors; assay: Staining of peripheral blood, PBMCs or peptide-induced CTL lines with MHC-tetramer reagents
Method: MBL Co. where the present inventors are affiliated with has acquired exclusive patent licensing rights in Japan for MHC-tetramer reagents (U.S. Pat. No. 5,635,363; French Application No. FR9911133; and U.S. Pat. Nos. 5,723,584, 5,874,239, 5,932,433, and 6,265,552) from Beckman Coulter Co. Based on the patents, PE-labeled MHC-tetramer reagents were prepared using adenovirus-specific CTL epitope peptides and HLA-A*2402 molecules.
Adenovirus-specific CTLs quantification was carried out using MHC-tetramer reagents that was prepared using CTL epitope peptides of the present invention, with peripheral blood, PBMCs isolated from peripheral blood, CTL lines induced using CTL epitope peptides as samples. Examples of quantification using PE-labeled MHC-tetramer reagents are described below. Labelling dyes may be used in an appropriate combination depending on the type of flow cytometer to be used, and is not limited to the examples described below.
Ten μl of a PE-labeled MHC-tetramer reagent, 20 μl of an FITC-labeled antibody for T cell (for example, CD8, CD4, or CD3), and such were added to 200 μl of collected peripheral blood. A CD45 antibody labeled with PC5 or such may also be added to eliminate nonspecific fluorescence due to contaminated erythrocytes. After gentle mixing, the mixture was allowed to stand at room temperature for 30 minutes. OptiLyse B was added, and erythrolysis and fixation was carried out according to the manufacturer's protocol. Two ml of PBS was added, stirred, and the cells were centrifuged at 400×g for 5 minutes. After the supernatant was removed by aspiration, the cells were resuspended in 500 μl of PBS and analyzed using a flow cytometer within 24 hours.
Ten μl of a PE-labeled MHC-tetramer reagent, 20 μl of an FITC-labeled T cell surface antibody (for example, CD8, CD4, or CD3), and such were added to an appropriate amount of PBMCs (10^5 to 10^6 cells) or a CTL line induced by use of CTL epitope peptides. A CD45 antibody labeled with PC5 or such may also be added to eliminate nonspecific fluorescence due to contaminated erythrocytes. After gentle mixing, the cells were allowed to stand at room temperature for 30 minutes. Three ml of PBS was added, stirred, and the cells were centrifuged at 400×g for 5 minutes. After the supernatant was removed by aspiration, the cells were resuspended in 500 μl of PBS. When a CTL line is used, 7-AAD Viability Dye (Non-viable cell detection reagent; MBL Co.) may be added to eliminate nonspecific fluorescence caused by non-viable cells. The cells were analyzed using a flow cytometer within 24 hours.
The results of staining obtained using the five types of MHC-tetramer reagents used to prepare the peptide-induced CTL lines are shown in FIG. 5.

## LYANSAHAL
[1]
  IFNγ spots in ELISPOT assay compared with the negative control (HIV) peptide: IFNγ spots were observed
[2]; donor ID *24-1
  specific CTL induction, cytokine quantification method: x
[2]; donor ID *24-2
  specific CTL induction, cytokine quantification method: x
[2]; donor ID *24-3
  specific CTL induction, cytokine quantification method: ∘
[2]; donor ID *24-5
  specific CTL induction, cytokine quantification method: x
[2]; donor ID *24-8
  specific CTL induction, cytokine quantification method: ∘
[2]; donor ID *24-10
  specific CTL induction, cytokine quantification method: x
[2]; donor ID *24-11
  specific CTL induction, cytokine quantification method: x
[2]; donor ID *24-12
  specific CTL induction, cytokine quantification method: x
[2]; donor ID *24-13
  specific CTL induction, cytokine quantification method: x
[2]; donor ID *24-14
  specific CTL induction, cytokine quantification method: x
[2]; donor ID*24-8, FIG. 3a-d
  specific CTL induction confirmed by CD8-positive, IFNγ-positive cells versus HIV peptide: induced specific CTLs
[2]
  peptide-specific cytokine production in PBMCs derived from ten people with HLA-A*24 molecule: induce cytokine production in a peptide-specific manner

## LYSNVALYL
[1]
  IFNγ spots in ELISPOT assay compared with the negative control (HIV) peptide: IFNγ spots were observed
[2]; donor *24-12
  CD8-positive, IFNγ-positive (producing) cells in UR: 2.95%
[2]; donor ID *24-1
  specific CTL induction, cytokine quantification method: x
[2]; donor ID *24-2
  specific CTL induction, cytokine quantification method: x
[2]; donor ID *24-3
  specific CTL induction, cytokine quantification method: x
[2]; donor ID *24-5
  specific CTL induction, cytokine quantification method: x
[2]; donor ID *24-8
  specific CTL induction, cytokine quantification method: x
[2]; donor ID *24-10
  specific CTL induction, cytokine quantification method: x
[2]; donor ID *24-11
  specific CTL induction, cytokine quantification method: x
[2]; donor ID *24-12
  specific CTL induction, cytokine quantification method: ∘
[2]; donor ID *24-13
  specific CTL induction, cytokine quantification method: ∘
[2]; donor ID *24-14
  specific CTL induction, cytokine quantification method: x
[2]; donor ID*24-12, FIG. 3e-h
  specific CTL induction confirmed by CD8-positive, IFNγ-positive cells versus HIV peptide: specific CTL induction was confirmed
[2]
  peptide-specific cytokine production in PBMCs derived from ten people with HLA-A*24 molecule: induce cytokine production in a peptide-specific manner
  number of persons with peptide-specific IFNγ production / CTL induction: two of the ten persons

## TYFSLNNKF (An artificially synthesized epitope peptide sequence) [reference compound]
[3]
  IFNγ production of the CTL line induced by TYF on restimulation with the named peptide: did not produce IFNγ
[3]; restimulated with the named peptide
  CD8-positive and TYF-Tet-positive cells: 1.97%

## TYPVLEEMF [EBV BRLF1, reference compound]
[4]; donor ID*24-2, 13 days stimulation with the peptide, then HIV peptide added, % of whole viable cells
  specific CTLs (CD8-positive MHC-tetramer reagent-positive cells, UR): 13.0%
[4]; donor ID*24-8, PBMCs cultured with the epitope peptide for 10 days (day 10)
  positive rate: CD8-positive, MHC-tetramer reagent-positive cells to viable cells: 15.6%
[4]; donor ID*24-8, immediately after blood collection (day 0)
  positive rate: CD8-positive, MHC-tetramer reagent-positive cells to viable cells: 0.03%
[4]; donor ID*24-8, ten days of culture with the peptide
  increase of the positive rate from day 0 to day 10: about 520 times
[2]; donor *24-8
  CD8-positive, IFNγ-positive (producing) cells in UR: 24.9%
[2]; donor *24-12
  CD8-positive, IFNγ-positive (producing) cells in UR: 9.57%
[2]; donor ID *24-1
  specific CTL induction, cytokine quantification method: ∘
[2]; donor ID *24-2
  specific CTL induction, cytokine quantification method: ∘
[2]; donor ID *24-3
  specific CTL induction, cytokine quantification method: ∘
[2]; donor ID *24-5
  specific CTL induction, cytokine quantification method: x
[2]; donor ID *24-8
  specific CTL induction, cytokine quantification method: ∘
[2]; donor ID *24-10
  specific CTL induction, cytokine quantification method: ∘
[2]; donor ID *24-11
  specific CTL induction, cytokine quantification method: ∘
[2]; donor ID *24-12
  specific CTL induction, cytokine quantification method: ∘
[2]; donor ID *24-13
  specific CTL induction, cytokine quantification method: ∘
[2]; donor ID *24-14
  specific CTL induction, cytokine quantification method: ∘
[2]
  number of persons with peptide-specific IFNγ production / CTL induction: nine of ten persons
